We go through six compounds from US9156828B2, “Tricyclic amidine derivatives as HIV attachment inhibitors” (priority 2012, dated 2015).

Structures are written as SMILES. Where two headings read alike, the source gives them in different places.

The experiment deals with HIV-1 LAI envelope single-round infectious reporter virus. In words: Single-round infectious HIV-1 LAI luciferase reporter virus infection of MT2 cells. In kind it is cell-based. The settings on record: Human immunodeficiency virus 1, MT2, 72 h. The text has this:
Virus Production— • Human embryonic Kidney cell line, 293T (HEK 293T), was propagated in Dulbecco's Modified Eagle Medium (Invitrogen, Carlsbad, Calif.) containing 10% fetal bovine serum (FBS, Sigma, St. Louis, Mo.). The human T-cell leukemia cell MT2 (AIDS Research and Reference Reagent Program, Cat. 237) was propagated in RPMI 1640 (Invitrogen, Carlsbad, Calif.) containing 10% fetal bovine serum (FBS, Hyclone, Logan, Utah)
Virus Infection— • Single-round infectious reporter virus was produced by co-transfecting HEK 293T cells with plasmide expressing the HIV-1 LAI envelope along with a plasmid containing an HIV-1 LAI proviral cDNA with the envelope gene replaced by a firefly luciferase reporter gene (Chen et al., Ref 41). Transfections were performed using lipofectAMINE PLUS reagent as described by the manufacturer (Invitrogen, Carlsbad, Calif.). Experimental Procedure • 1. MT2 cells were plated in black, 384 well plates at a cell density of 5×10^3 cells per well in […] RPMI 1640 containing 10% FBS. • 2. Compound (diluted in dimethylsulfoxide and growth medium) was added to cells at 12.5 μl/well, so that the final assay concentration would be […]. • 3. 12.5 μl of single-round infectious reporter virus in Dulbecco's Modified Eagle Medium was added to the plated cells and compound at an approximate multiplicity of infection (MOI) of 0.01, resulting in a final volume of 50 μl per well. • 4. Virus-infected cells were incubated at 37 degrees Celsius in a CO2 incubator and harvested 72 h after infection. • 5. Viral infection was monitored by measuring luciferase expression in the infected cells using a luciferase reporter gene assay kit (Steady-Glo, Promega, Madison, Wis.) as described by the manufacturer. Luciferase activity was then quantified by measuring luminescence using an EnVision Multilabel Plate Readers (PerkinElmer, Waltham, Mass.). • 6. The percent inhibition for each compound was calculated by quantifying the level of luciferase expression in cells infected in the presence of each compound as a percentage of that observed for cells infected in the absence of compound and subtracting such a determined value from 100. • 7. An EC50 provides a method for comparing the antiviral potency of the compounds herein. The effective concentration for fifty percent inhibition (EC50) was calculated with the Microsoft Excel Xlfit curve fitting software. For each compound, curves were generated from percent inhibition calculated at 10 different concentrations by using a four parameter logistic model (model 205). Table 1 is the key for the data in Table 2.
On the technique in general: Reporter assays use an easily measured gene product as a stand-in for the process of interest.

Setting [1] is: read-out: EC50 Group from Table 1.

On to `O=C(C(=O)N1CCN(C2=Nc3ccccc3Oc3ccc(Cl)cc32)CC1)c1c[nH]c2c(Br)ccc(F)c12` [Compound 1004], for which the EC50 (as a rule, the midpoint of the concentration-response curve) under setting [1] is > 500 nM.

With `COc1cnc(-n2cncn2)c2[nH]cc(C(=O)C(=O)N3CCN(C4=Nc5ccccc5Oc5ccc(Cl)cc54)CC3)c12` [Compound 1003], the half-maximal effective concentration (EC50) under setting [1] was < 500 nM.

In turn, `O=C(C(=O)N1CCN(C2=Nc3ccccc3Oc3ccc(Cl)cc32)CC1)c1c[nH]c2ccccc12` [Compound 1001] had a half-maximal effective concentration (EC50) of 706 nM. The EC50 under setting [1] was > 500 nM.

For the compound `O=C(C(=O)N1CCN(C2=Nc3cc(Cl)ccc3Nc3ccccc32)CC1)c1c[nH]c2ccccc12` [Compound 1002], the EC50 under setting [1] is > 500 nM.

With `COc1cnc(-n2cnc(C)n2)c2[nH]cc(C(=O)C(=O)N3CCN(C4=Nc5ccccc5Oc5ccc(Cl)cc54)CC3)c12` [Compound 1005], a half-maximal response (EC50) required 1.83 nM. For the same compound, under setting [1], the concentration for a half-maximal effect (EC50) was < 500 nM.

Regarding `COc1cnc(-n2cnc(C)n2)c2[nH]cc(C(=O)C(=O)N3CCN(C4=Nc5cc(Cl)ccc5Nc5ccccc54)CC3)c12` [Compound 1006], the EC50 under setting [1] was < 500 nM.
